ChEMBL document CHEMBL1146299, “Molecular modeling of binding between amidinobenzisothiazoles, with antidegenerative activity on cartilage, and matrix metalloproteinase-3” (Bioorg Med Chem, 2007)

Assay: Dissociation constant, pKa of the compound
Assay type: physicochemical

Structure (SMILES)	pKa
CC(=N)Nc1nsc2ccccc12	6.99
N=C(Nc1nsc2ccccc12)c1ccc(Cl)cc1	4.84
N=C(Nc1nsc2ccccc12)c1ccccc1	5.4
